Measured values published in ChEMBL document CHEMBL5120857, “Rational design, synthesis and biological evaluation of dual PARP-1/2 and TNKS1/2 inhibitors for cancer therapy” (Eur J Med Chem, 2022).
Activity calls are given as the source filed them. The rule behind the calls is not given here.

Legend:
HCT-116 [1] = test: Inhibition of Wnt/beta-Catenin signaling in human HCT-116 cells assessed as increase in axin2 levels at 10 uM by Western blot analysis; assay type: cell-based
HCT-116 [2] = test: Inhibition of Wnt/beta-Catenin signaling in human HCT-116 cells assessed as decrease in active beta-catenin levels at 10 uM by Western blot analysis; assay type: cell-based
HCT-116 [3] = test: Induction of DNA damage in human HCT-116 cells assessed as increase in nuclear gammaH2AX foci incubated for 72 hrs by DAPI staining based immunofluorescence analysis; assay type: functional, cell-based; settings: dose 1.0 µM
HCT-116 [4] = test: Induction of apoptosis in human HCT-116 cells assessed as viable cells at 5 uM incubated for 3 days by annexinV-FITC/propidium iodide staining based flow cytometry (reference value: 60.0 %); assay type: functional; settings: Homo sapiens, HCT-116, 72 h, time 3 day, read-out: Activity
HCT-116 [5] = test: Induction of apoptosis in human HCT-116 cells assessed as late apoptotic cells at 1 uM incubated for 3 days by annexinV-FITC/propidium iodide staining based flow cytometry (reference value: 8.71 %); assay type: functional; settings: time 3 day
[6] = Toxicity in […] assessed as effect on body weight at 500 mg/kg, ip administered as single dose and measured on day 4 (reference value: 24.50 +/- 3.11 g); assay type: organism-based; settings: in vivo
[7] = Toxicity in […] assessed as effect on body weight at 500 mg/kg, ip administered as single dose and measured on day 7 (reference value: 26.00 +/- 3.16 g); assay type: organism-based; settings: in vivo
[8] = Toxicity in BALB/c nude mouse xenografted with human HCT116 cells assessed as side effects at 25 to 100 mg/kg, ip administered once daily for 28 days; assay type: organism-based, HCT-116; settings: in vivo, 672 h, dose 25-100 mg/kg, time 28 day
HCT-116 [9] = test: Antitumor activity against human HCT-116 cells xenografted in BALB/c nude mouse assessed as tumor growth inhibition at 25 mg/kg, ip administered once daily for 28 days; assay type: functional; settings: HCT-116, 672 h, time 28 day, read-out: TGI

## COc1ccc(NC(=O)c2ccc(NC(=O)N3CCN(C(=O)c4cc(Cc5n[nH]c(=O)c6ccccc56)ccc4F)CC3)cc2)cc1
HCT-116 [1]
  inhibition: Active
HCT-116 [2]
  inhibition: Active
HCT-116 [3]
  Activity: Active
HCT-116 [4]
  viability at 5 µM: 45.1%
HCT-116 [5]
  Activity: 15.3%
[6]
  Activity: 23 g
[7]
  Activity: 24.25 g
[8]
  Activity: Non-Toxic
HCT-116 [9]
  inhibition in vivo at 25 mg/kg: 31.7%
